The target in assay [1] is T1, panel of 442 kinases (Homo sapiens, UniProt P06239).
T1 construct: purchased KINOMEscan
It counts as binding. To be noted: Compound Concentration 10 µM. The source says:
(§1) We assessed the selectivity of members of this scaffold using the KINOMEscan methodology across a near comprehensive panel of 442 kinases [[18,27]].

The target of assay [2] is T2, panel of 442 kinases (Homo sapiens, UniProt Q14289).
T2 construct: purchased KINOMEscan
It counts as binding. Conditions: Compound Concentration 10 µM.
Description: as §1

Four compounds from publication PMC3914206 can be followed below.

T1 sequence (P06239 whole entry): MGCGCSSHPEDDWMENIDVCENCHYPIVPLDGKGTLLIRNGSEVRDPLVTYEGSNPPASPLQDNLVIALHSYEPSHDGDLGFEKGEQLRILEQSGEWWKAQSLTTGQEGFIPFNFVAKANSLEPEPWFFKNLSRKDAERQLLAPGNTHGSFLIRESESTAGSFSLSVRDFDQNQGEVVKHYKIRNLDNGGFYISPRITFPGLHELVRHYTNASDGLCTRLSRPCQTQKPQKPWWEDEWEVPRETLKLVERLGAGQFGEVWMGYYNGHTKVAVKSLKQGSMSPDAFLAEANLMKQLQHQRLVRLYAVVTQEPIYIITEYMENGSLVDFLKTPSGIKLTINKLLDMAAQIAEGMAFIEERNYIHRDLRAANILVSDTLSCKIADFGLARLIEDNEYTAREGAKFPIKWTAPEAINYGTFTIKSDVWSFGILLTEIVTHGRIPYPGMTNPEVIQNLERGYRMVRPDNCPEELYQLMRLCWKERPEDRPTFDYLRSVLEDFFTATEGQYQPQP
T2 sequence (Q14289 whole entry): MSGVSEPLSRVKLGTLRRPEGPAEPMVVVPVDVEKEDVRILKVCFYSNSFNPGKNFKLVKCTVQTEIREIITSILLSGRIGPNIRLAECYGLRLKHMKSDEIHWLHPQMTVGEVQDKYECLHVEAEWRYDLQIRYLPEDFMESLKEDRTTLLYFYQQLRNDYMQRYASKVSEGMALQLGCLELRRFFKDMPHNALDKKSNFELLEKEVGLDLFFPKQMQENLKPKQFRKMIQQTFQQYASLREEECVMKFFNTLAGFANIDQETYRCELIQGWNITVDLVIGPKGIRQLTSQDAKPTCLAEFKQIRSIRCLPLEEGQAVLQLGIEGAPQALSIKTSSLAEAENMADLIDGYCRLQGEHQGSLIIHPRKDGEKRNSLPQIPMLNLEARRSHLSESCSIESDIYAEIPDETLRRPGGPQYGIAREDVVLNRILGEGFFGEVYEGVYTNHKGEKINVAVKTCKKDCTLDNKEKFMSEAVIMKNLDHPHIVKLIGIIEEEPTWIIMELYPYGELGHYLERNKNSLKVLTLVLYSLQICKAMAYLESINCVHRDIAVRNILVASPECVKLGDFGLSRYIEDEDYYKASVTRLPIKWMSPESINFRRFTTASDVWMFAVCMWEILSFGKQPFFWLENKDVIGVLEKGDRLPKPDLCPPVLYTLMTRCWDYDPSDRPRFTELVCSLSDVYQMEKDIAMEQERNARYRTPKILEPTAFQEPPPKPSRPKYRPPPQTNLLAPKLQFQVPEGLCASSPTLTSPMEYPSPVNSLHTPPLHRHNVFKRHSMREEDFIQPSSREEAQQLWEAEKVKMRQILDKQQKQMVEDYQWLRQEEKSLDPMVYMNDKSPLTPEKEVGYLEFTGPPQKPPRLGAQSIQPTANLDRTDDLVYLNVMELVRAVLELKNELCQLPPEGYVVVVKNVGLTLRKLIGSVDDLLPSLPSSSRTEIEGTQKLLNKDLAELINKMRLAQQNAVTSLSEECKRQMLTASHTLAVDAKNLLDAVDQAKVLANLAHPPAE

As for `COc1cc(C(=O)N2CCC(N3CCN(C)CC3)CC2)ccc1Nc1ncc2c(n1)N(C)c1ccccc1C(=O)N2C` [15 (LRRK2-IN-1)], the “KINOMEscan: LCK” value on panel of 442 kinases [1] turned out to be 100. Moreover, the “KINOMEscan: PYK2” value at panel of 442 kinases [2] was 78. On to `COc1cc(C(=O)N2CCC(N3CCN(C)CC3)CC2)ccc1Nc1ncc2c(n1)N1CCc3cccc(c31)C(=O)N2C` [Compound 24], for which the “KINOMEscan: PYK2” value at panel of 442 kinases [2] is on record as 77. As to `COc1cc(C(=O)N2CCC(N3CCN(C)CC3)CC2)ccc1Nc1ncc2c(n1)N(C1CCCC1)c1ccccc1C(=O)N2C` [Compound 25, 11-cyclopentyl-2-((2-methoxy-4-(4-(4-methylpiperazin-1-yl)piperidine-1-carbonyl)phenyl)amino)-5-methyl-5H-benzo[e]pyrimido[5,4-b][1,4]diazepin-6(11H)-one], at panel of 442 kinases [1], the “KINOMEscan: LCK” value was found to be 66. Further, at panel of 442 kinases [2], the “KINOMEscan: PYK2” value is given as 17. On the same counts, the results for `CCOc1cc(C(=O)N2CCC(N3CCN(C)CC3)CC2)ccc1Nc1ncc2c(n1)N(C1CCCC1)c1ccccc1C(=O)N2C` [Compound 26] are 100 and 43.
